According to ChEMBL document CHEMBL4665724, “Structure-activity relationship analysis of dammarane-type natural products as muscle-type creatine kinase activators” (Bioorg Med Chem Lett, 2020):
The source made the active and inactive calls. The calls are words filed in the database; no cut-off is given here.

Tests used:
[1] = target: Creatine kinase M-type (Homo sapiens) (UniProt P06732); assay: Activation of human CK-MM assessed as increase in enzyme activity at 5 to 80 uM; conditions: dose microM 5-80
Sequence of Creatine kinase M-type (Homo sapiens) (P06732 whole entry): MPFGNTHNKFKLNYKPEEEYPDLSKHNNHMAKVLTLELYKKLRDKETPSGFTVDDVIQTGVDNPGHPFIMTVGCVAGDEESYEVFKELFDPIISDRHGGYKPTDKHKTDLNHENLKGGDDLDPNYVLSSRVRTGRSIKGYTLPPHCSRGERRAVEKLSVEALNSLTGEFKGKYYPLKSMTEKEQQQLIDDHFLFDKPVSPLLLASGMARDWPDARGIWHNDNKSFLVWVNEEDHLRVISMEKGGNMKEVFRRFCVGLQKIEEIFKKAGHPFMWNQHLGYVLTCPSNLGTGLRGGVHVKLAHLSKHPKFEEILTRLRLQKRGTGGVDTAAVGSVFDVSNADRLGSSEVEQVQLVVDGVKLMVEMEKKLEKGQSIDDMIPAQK

[2] = target: Creatine kinase M-type (Homo sapiens) (UniProt P06732); assay: Binding affinity to recombinant human His-tagged CK-MM at 20 uM by Biolayer Interferometry analysis
[3] = target: Creatine kinase M-type (Homo sapiens) (UniProt P06732); assay: Activation of human CK-MM assessed as increase in enzyme activity at 5 uM relative to control
[4] = target: Creatine kinase M-type (Homo sapiens) (UniProt P06732); assay: Activation of human CK-MM assessed as increase in enzyme activity at 10 uM relative to control
[5] = target: Creatine kinase M-type (Homo sapiens) (UniProt P06732); assay: Activation of human CK-MM assessed as increase in enzyme activity at 20 uM relative to control
[6] = target: Creatine kinase M-type (Homo sapiens) (UniProt P06732); assay: Activation of human CK-MM assessed as increase in enzyme activity at 40 uM relative to control
[7] = target: Creatine kinase M-type (Homo sapiens) (UniProt P06732); assay: Activation of human CK-MM assessed as increase in enzyme activity at 80 uM relative to control
[8] = target: Creatine kinase M-type (Oryctolagus cuniculus) (UniProt P00563); assay: Activation of rabbit CK-MM assessed as increase in enzyme activity at 20 uM relative to control
Sequence of Creatine kinase M-type (Oryctolagus cuniculus) (P00563 whole entry): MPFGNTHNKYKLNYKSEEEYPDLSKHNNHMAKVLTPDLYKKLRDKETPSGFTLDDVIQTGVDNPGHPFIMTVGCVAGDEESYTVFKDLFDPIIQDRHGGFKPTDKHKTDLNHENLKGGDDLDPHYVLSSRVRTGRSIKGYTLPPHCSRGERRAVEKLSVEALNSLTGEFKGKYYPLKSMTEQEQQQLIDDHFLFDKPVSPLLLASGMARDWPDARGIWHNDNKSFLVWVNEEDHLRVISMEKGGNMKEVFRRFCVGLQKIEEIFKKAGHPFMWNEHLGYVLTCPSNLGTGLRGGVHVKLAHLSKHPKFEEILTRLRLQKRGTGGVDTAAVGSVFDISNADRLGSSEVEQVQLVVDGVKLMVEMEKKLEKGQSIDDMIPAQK

[9] = target: Creatine kinase M-type (Oryctolagus cuniculus) (UniProt P00563); assay: Activation of rabbit CK-MM assessed as increase in enzyme activity at 40 uM relative to control
[10] = target: Creatine kinase M-type (Oryctolagus cuniculus) (UniProt P00563); assay: Activation of rabbit CK-MM assessed as increase in enzyme activity at 80 uM relative to control
[11] = target: Creatine kinase M-type (Oryctolagus cuniculus) (UniProt P00563); assay: Binding affinity to rabbit CK-MM at 20 uM
[12] = target: Creatine kinase M-type (Oryctolagus cuniculus) (UniProt P00563); assay: Activation of rabbit CK-MM assessed as increase in enzyme activity at 5 to 80 uM; conditions: dose microM 5-80
[13] = target: Creatine kinase M-type (Oryctolagus cuniculus) (UniProt P00563); assay: Activation of rabbit CK-MM assessed as increase in enzyme activity at 10 uM relative to control

Structure (SMILES) | Activity [3] | Activity [4] | Activity [5] | Activity [6] | Activity [7] | Activity ([2]; filed as activator) | also measured
CC(C)(O)[C@H]1CC[C@@](C)([C@H]2CC[C@]3(C)[C@@H]2[C@H](O)C[C@@H]2[C@@]4(C)CC[C@H](O)C(C)(C)[C@@H]4CC[C@]23C)O1 |  |  |  |  |  |  | Activity [1]: inactive; Activity [2]: inactive
CC(C)=CCC[C@](C)(O)[C@H]1CC[C@]2(C)[C@@H]1[C@H](O)C[C@@H]1[C@@]3(C)CC[C@H](O)C(C)(C)[C@@H]3[C@@H](O)C[C@]12C | 19.1% | 20.6% | 32.2% | 19.7% | 13.6% | Active | Activity [8]: 4.4%; Activity [9]: 3.4%; Activity [10]: 2.1%; Activity ([11]; filed as activator): Active
CC(C)=CCC[C@@](C)(O)[C@H]1CC[C@]2(C)[C@@H]1[C@H](O)C[C@@H]1[C@@]3(C)CC[C@H](O)C(C)(C)[C@@H]3CC[C@]12C | 12.6% | 14.7% | 23.5% | 14.3% | 10.2% | Active | 
CC(C)=CCC[C@](C)(O[C@@H]1O[C@H](CO)[C@@H](O)[C@H](O)[C@H]1O)[C@H]1CC[C@]2(C)[C@@H]1[C@H](O)C[C@@H]1[C@@]3(C)CC[C@H](O[C@@H]4O[C@H](CO)[C@@H](O)[C@H](O)[C@H]4O[C@@H]4O[C@H](CO)[C@@H](O)[C@H](O)[C@H]4O)C(C)(C)[C@@H]3CC[C@]12C |  |  |  |  |  |  | Activity [11]: inactive; Activity [12]: inactive
CC(C)(O)CCC[C@](C)(O)[C@H]1CC[C@]2(C)[C@@H]1[C@H](O)C[C@@H]1[C@@]3(C)CC[C@H](O)C(C)(C)[C@@H]3CC[C@]12C | 17.3% | 8.6% |  | 7.5% | 15.6% | Active | 
CC1(C)[C@@H](O)CC[C@]2(C)[C@H]3C[C@@H](O)[C@@H]4[C@@H]([C@@](C)(O)CCC(=O)O)CC[C@@]4(C)[C@]3(C)CC[C@@H]12 | 37.6% | 37.4% |  |  |  | Active | Activity ([5]; filed as activator): 49.7%; Activity ([6]; filed as activator): 49.8%; Activity ([7]; filed as activator): 52.1%; Activity ([1]; filed as activator): Dose-dependent effect
CC(C)=CCC[C@](C)(O)[C@H]1CC[C@]2(C)[C@@H]1[C@H](O)C[C@@H]1[C@@]3(C)CC[C@H](O)C(C)(C)[C@@H]3CC[C@]12C | 29.6% | 35.4% | 39.2% |  |  | Active | Activity ([6]; filed as activator): 54.3%; Activity ([7]; filed as activator): 53.2%; Activity ([1]; filed as activator): Dose-dependent effect; Activity [13]: 9.3%; Activity [8]: 4.3%; Activity [9]: 4.2%; Activity ([11]; filed as activator): Active
CC1(C)CCC[C@](C)([C@H]2CC[C@]3(C)[C@@H]2[C@H](O)C[C@@H]2[C@@]4(C)CC[C@H](O)C(C)(C)[C@@H]4[C@H](O)C[C@]23C)O1 |  |  |  |  |  |  | Activity [1]: inactive; Activity [2]: inactive
CC(C)=CCC[C@](C)(O[C@@H]1O[C@H](CO)[C@@H](O)[C@H](O)[C@H]1O)[C@H]1CC[C@]2(C)[C@@H]1[C@H](O)C[C@@H]1[C@@]3(C)CC[C@H](O)C(C)(C)[C@@H]3[C@@H](O[C@@H]3O[C@H](CO)[C@@H](O)[C@H](O)[C@H]3O)C[C@]12C |  |  |  |  |  |  | Activity [11]: inactive; Activity [12]: inactive
CC1(C)CCC[C@](C)([C@H]2CC[C@]3(C)[C@@H]2[C@H](O)C[C@@H]2[C@@]4(C)CC[C@H](O)C(C)(C)[C@@H]4CC[C@]23C)O1 |  |  | 7.1% | 14.4% | 15.4% | Active | 
CC(C)=CCC[C@](C)(O)[C@H]1CC[C@]2(C)[C@@H]1[C@H](O)C[C@@H]1[C@@]3(C)CC[C@H](O[C@@H]4O[C@H](CO)[C@@H](O)[C@H](O)[C@H]4O)C(C)(C)[C@@H]3CC[C@]12C |  |  |  |  |  |  | Activity [8]: 3.1%; Activity [9]: 3.5%; Activity ([11]; filed as activator): Active
CC(C)=C[C@H]1C[C@](C)(O)[C@@H]2[C@H]3CC[C@@H]4[C@@]5(C)CC[C@H](O)C(C)(C)[C@@H]5CC[C@@]4(C)[C@@]34CO[C@@]2(C4)O1 | 16.9% | 11.9% |  | 5.7% |  |  | Activity [2]: inactive
